{
  "source": "patent US11369609B2",
  "about": "“Small molecule Wnt inhibitor as treatment for dyslipidemia” (Yale University, priority 2019, dated 2022)",
  "tested_on": "canonical Wnt signaling",
  "experiment": "Renal fibrosis in STZ-induced diabetic CD-1 mice treated with Wnt inhibitor",
  "type": "in vivo",
  "procedure": "All experiments were performed in accordance with the National Institute of Health (NIH) Guidelines for the Care of Laboratory Animals. Mice lacking the endothelial glucocorticoid receptor (GR) (known as GR^ECKO) and those lacking this receptor on the Apo E null background (DKO) were generated as previously described (6). The induction of diabetes in CD-1 mice and C57B/L6 mice was performed according to previously established experimental protocols (38-42). Briefly, diabetes was induced in 10-week-old GR^ECKO mice with five consecutive intraperitoneal (IP) doses of streptozotocin (STZ) 50 mg/kg in 10 mmol/L citrate buffer (pH 4.5). Wnt inhibitor (LGK974) was provided to GR^ECKO and control littermate at 5 mg/kg at a frequency of six doses per week for 8 weeks (43). Etomoxir (20 mg/kg) and c75 (15 mg/kg) were dosed (ip) three times per week for 3 weeks in the GR^ECKO and control littermate. A single IP dose of 200 mg/kg STZ was used to induce diabetes in CD-1 mice. Fenofibrate (100 mg/kg), simvastatin (40 mg/kg), were dosed orally for 4 weeks in diabetic CD-1 mice. All mice were sacrificed after 4 weeks of treatment and tissues and blood were harvested. Urine albumin levels were assayed using a Mouse Albumin ELISA Kit (Exocell, Philadelphia, Pa.).\nA point-counting method was utilized to evaluate the relative area of the mesangial matrix. PAS-stained glomeruli from each mouse were analyzed using a digital microscope screen grid containing 540 (27×20) points. Masson's trichrome-stained images were evaluated by ImageJ software, and the fibrotic areas were estimated.\nDeparaffinized sections were incubated with picrosirius red solution for 1 hour at room temperature. The slides were washed twice with acetic acid solution for 30 seconds per wash. The slides were then dehydrated in absolute alcohol three times, cleared in xylene, and mounted with a synthetic resin. Sirius red staining was analyzed using ImageJ software, and fibrotic areas were quantified.\nParaffin-embedded kidney sections (5 μm thick) were deparaffinized and rehydrated (2 min in xylene, four times; 1 min in 100% ethanol, twice; 1 min in 95% ethanol; 45 s in 70% ethanol; and 1 min in distilled water), and the antigen was retrieved in a 10 mM citrate buffer pH 6 at 98° C. for 60 min. To block the endogenous peroxidase, all sections were incubated in 0.3% hydrogen peroxide for 10 min. The immunohistochemistry was performed using a Vectastain ABC Kit (Vector Laboratories, Burlingame, Calif.). Mouse anti-[…] antibody (1:100) and CPT1a (Abnova; H00001374-DO1P; 1:100) antibody was used. In the negative controls, the primary antibody was omitted and replaced with the blocking solution.\nFrozen kidney sections (5 μm) were used for immunofluorescence; double positive labeling with CD31/αSMA, CD31/TGFβR1 and E-cadherin/αSMA was measured. Briefly, frozen sections were dried and placed in acetone for 10 min at −30° C. Once the sections were dried, they were washed twice in phosphate-buffered saline (PBS) for 5 min and then blocked in 2% bovine serum albumin/PBS for 30 min at room temperature. Thereafter, the sections were incubated in primary antibody (1:100) for 1 hour and washed in PBS (5 min) three times. Next, the sections were incubated with the secondary antibodies for 30 min, washed with PBS three times (5 min each), and mounted with mounting medium with DAPI (Vector Laboratories, Burlingame, Calif.). The immune-labeled sections were analyzed by fluorescence microscopy. For each mouse, original magnification of ×400 pictures were obtained from six different areas, and quantification was performed.\nTo determine whether inhibition of the Wnt signaling pathway could ameliorate the observed fibrosis, LGK974, a small molecule inhibitor of all secreted Wnts (43), was utilized. FIGS. 21A-21B depict the schematic diagram showing the experimental protocol for LGK974 treatment in diabetic CD-1 and UUO mice.",
  "key": {"[1]": {"settings": "diabetic CD-1 mice, LGK974 5 mg/kg"}},
  "note": "“Also recorded” adds a separate entry of the source.",
  "data": [
    {"molecule": "Cc1cc(-c2ncc(CC(=O)Nc3ccc(-c4cnccn4)cn3)cc2C)ccn1", "note": "[LGK974]", "values": [
      {"measurement": "ECM deposition", "setting": "[1]", "result": "greatly diminished"},
      {"measurement": "collagen accumulation", "setting": "[1]", "result": "greatly diminished"},
      {"measurement": "glomerulosclerosis", "setting": "[1]", "result": "greatly diminished"},
      {"measurement": "relative area fibrosis", "setting": "[1]", "result": "greatly diminished"},
      {"measurement": "endothelial GR level", "setting": "diabetic mice, kidney CD31-positive cells", "result": "significantly restored"},
      {"measurement": "level of β-catenin", "setting": "diabetic mice, kidney immunohistochemistry", "result": "suppressed"},
      {"measurement": "canonical Wnt signaling", "setting": "mouse model of diabetic kidney disease", "result": "clearly suppressed"},
      {"measurement": "fibrogenic phenotype", "setting": "mouse model of diabetic kidney disease (b57 legend also UUO mice)", "result": "substantially improved; also recorded: abolishes the fibrogenic phenotype"}
    ]}
  ]
}
